Measurements taken from article PMC6736568, “Discovery of Novel Anti-cryptosporidial Activities From Natural Products by in vitro High-Throughput Phenotypic Screening” (Frontiers in Microbiology, 2019).
Where two headings read alike, the source gives them in different places.

Experiments:
Cryptosporidium parvum [1] = experiment: qRT-PCR assay of the growth of C. parvum in vitro in HCT-8 host cells (primary and secondary screening, EC50); format: cell-based; details: Cryptosporidium parvum; for inhibition at 10 µM / inhibition at 3.3 µM: HCT-8; for inhibition at 10 µM: primary screening at 10 uM, read-out: Inhibition (%); for inhibition at 3.3 µM: secondary screening at 3.3 uM, read-out: % Inhibition (3.3 uM); for EC50: growth of C. parvum in vitro, HCT-8 host cells, 44 h infection
HCT-8 cells = experiment: In vitro cytotoxicity MTS assay on host cells; format: cell-based, human; details: 41 h
Method: The plates were measured for absorbance at 490 nm in 15 min intervals in a SmartReader 96 microplate reader (Accuris, Edison, NJ, United States). Cytotoxicity of a compound was quantified by calculating the half maximal toxic concentration on host cells (TC50). An in vitro safety interval (SI) was calculated by determining the ratio between TC50 and EC50 values (i.e., SI = TC50/EC50).

[2] = tested on: cryptosporidial infection; set-up: method as in Lemeteil et al., 1993; details: ref Lemeteil et al., 1993; cited from earlier work
in vitro = details: for cytotoxicity at 41 h, 10 µM: human
[3] = mouse, ip; ref MicroSource NatProd Collection note; cited from earlier work
Cryptosporidium parvum [4] = experiment: Effect on different parasite developmental stages in vitro (qRT-PCR); format: cell-based; details: cedrelone 1.0 μM, Deox B 7,4 2.0 μM, baicalein 3.3 μM, PRM 150 μM
Method: We selected three top hits derived from plants for evaluating their activity against various developmental stages of C. parvum. For evaluating the effect on the parasite invasion (i.e., 0–3 hpi treatment groups), host cell monolayers will be incubated with C. parvum oocysts (10^5 oocysts/well) in 96-well plates together with individual compounds at around EC80 concentrations. For evaluating the effect on various stages of intracellular parasites (i.e., 3–10 hpi, […], 22–44 hpi, and 3–44 hpi treatment groups), host cell monolayers were incubated with C. parvum oocysts (50,000 oocysts/well) for 3 h, followed by the removal of uninvaded parasites by a medium exchange. These time points roughly corresponded to the invasion into host cells (0–3 hpi), the development of first and some second generation of merogony (3–22 hpi) or second generation of merogony and gametogenesis (22–44 hpi). Individual compounds at EC80 final concentrations were added into wells at specified post-infection time points, and plates were incubated for specified durations of post-infection times. Cell lysates were prepared at the end of each treatment for qRT-PCR.
(§1) In all experiments, negative controls were treated with diluent (0.5% DMSO) for the same durations of corresponding drug treatment groups. All experiments include least three biological replicates for each compound in the in vitro drug treatment assay and two technical replicates for each biological replicate in the qRT-PCR assay.

Cryptosporidium parvum [5] = experiment: Drug withdrawal assay (qRT-PCR at 44 hpi); format: cell-based; details: assayed at 44 hpi, cedrelone 1.0 μM, Deox B 7,4 2.0 μM, baicalein 3.3 μM, PRM 150 μM
Method: For drug withdrawal assay, HCT-8 cells were cultured and inoculated with C. parvum oocysts (50,000 oocysts/well) for 3 h. After a medium exchange, individual compounds at EC80 final concentrations were added into wells. Compounds were removed at 22 hpi time point by a medium exchange, and infected cells were allowed to grow up to 44 hpi (3–22 hpi treatment groups). A full course of treatment for each compound was included as control (3–44 hpi treatment groups). Cell lysates were prepared at 44 hpi time point for qRT-PCR.
as §1

[6] = primary screening at 10 uM, treated vs control

Structure (SMILES): COc1cccc2c1C(=O)c1c(O)c3c(c(O)c1C2=O)C[C@@](O)(C(C)=O)C[C@@H]3O[C@H]1C[C@H](N)[C@H](O)[C@H](C)O1 [Daunorubicin, reference compound]
- inhibition at 10 µM (Cryptosporidium parvum [1]): 76.8%
- inhibition at 3.3 µM (Cryptosporidium parvum [1]): 71%
- EC50 (Cryptosporidium parvum [1]): 1.49 µM
- TC50 (HCT-8 cells; human): 42.6 µM
- Hs18S ΔCT (HCT-8 host cells (Hs18S); human, 41 h, 10 μM): 0.99
- efficacy on cryptosporidial infection in rats [2]: ineffective
- cytotoxicity at 41 h, 10 µM (in vitro): 49.5%

Structure (SMILES): COC1=C[C@@H]2[C@@H]3Cc4ccc(OC)c(O)c4[C@]2(CCN3C)CC1=O [SINOMENINE]
- inhibition at 10 µM (Cryptosporidium parvum [1]): -83.5%
- Hs18S ΔCT (HCT-8 host cells (Hs18S); [6]): -0.78
- cytotoxicity at 10 µM (in vitro): -71.8%
- LD50 [3]: 285 mg/kg

Structure (SMILES): Cc1coc2c1C(=O)C(=O)c1c-2ccc2c1CCCC2(C)C [Tanshinone IIA]
- inhibition at 10 µM (Cryptosporidium parvum [1]): 82.7%
- inhibition at 3.3 µM (Cryptosporidium parvum [1]): 63%
- EC50 (Cryptosporidium parvum [1]): 0.964 µM
- TC50 (HCT-8 cells; HCT-8 cells, MTS): >100 µM
- Hs18S ΔCT (HCT-8 host cells (Hs18S); [6]): 0.08
- cytotoxicity at 10 µM (in vitro): 5.6%

Structure (SMILES): CO[C@@]12[C@H](COC(N)=O)C3=C(C(=O)C(C)=C(N)C3=O)N1C[C@@H]1N[C@@H]12 [Mitomycin, reference compound]
- inhibition at 10 µM (Cryptosporidium parvum [1]): 93.7%
- inhibition at 3.3 µM (Cryptosporidium parvum [1]): 78%
- EC50 (Cryptosporidium parvum [1]): 0.133 µM
- TC50 (HCT-8 cells; HCT-8 cells, MTS): 13.1 µM
- Hs18S ΔCT (HCT-8 host cells (Hs18S)): 1.34
- cytotoxicity at 10 µM (in vitro): 60.5%

Structure (SMILES): CC(C)[C@@H]1NC(=O)[C@H](C)OC(=O)[C@@H](C(C)C)NC(=O)[C@@H](C(C)C)OC(=O)[C@H](C(C)C)NC(=O)[C@H](C)OC(=O)[C@@H](C(C)C)NC(=O)[C@@H](C(C)C)OC(=O)[C@H](C(C)C)NC(=O)[C@H](C)OC(=O)[C@@H](C(C)C)NC(=O)[C@@H](C(C)C)OC1=O [Valinomycin, reference compound]
- inhibition at 10 µM (Cryptosporidium parvum [1]): 92.3%
- inhibition at 3.3 µM (Cryptosporidium parvum [1]): 87%
- EC50 (Cryptosporidium parvum [1]): 0.122 µM
- TC50 (HCT-8 cells; HCT-8 cells, MTS): >50 µM
- Hs18S ΔCT (HCT-8 host cells (Hs18S); [6]): -0.13
- cytotoxicity at 10 µM (in vitro): -9.2%

Structure (SMILES): CC1(C)C(=O)C=C[C@]2(C)[C@H]3CC[C@@]4(C)[C@H](c5ccoc5)OC(=O)[C@H]5O[C@]54[C@]3(C)[C@H](O)C[C@@H]12 [Deacetylgedunin]
- inhibition at 10 µM (Cryptosporidium parvum [1]): 91.1%
- inhibition at 3.3 µM (Cryptosporidium parvum [1]): 56%
- EC50 (Cryptosporidium parvum [1]): 1.77 µM
- TC50 (HCT-8 cells; HCT-8 cells, MTS): 30.9 µM
- Hs18S ΔCT (HCT-8 host cells (Hs18S); [6]): 0.23
- cytotoxicity at 10 µM (in vitro): 14.8%

Structure (SMILES): CC1(C)C(=O)C=C[C@]2(C)[C@H]3CC[C@@]4(C)[C@H](c5ccoc5)OC(=O)[C@H]5O[C@]54[C@]3(C)C(=O)C[C@@H]12 [Deacetoxy-7-oxogedunin]
- inhibition at 10 µM (Cryptosporidium parvum [1]): 88.7%
- inhibition at 3.3 µM (Cryptosporidium parvum [1]): 77%
- EC50 (Cryptosporidium parvum [1]): 1.94 µM
- TC50 (HCT-8 cells; HCT-8 cells, MTS): 12.8 µM
- Hs18S ΔCT (HCT-8 host cells (Hs18S); [6]): 0.39
- cytotoxicity at 10 µM (in vitro): 23.6%

Structure (SMILES): CC1(C)C(=O)C=C[C@@]2(C)C1=C(O)C(=O)[C@]1(C)[C@@H]2CC[C@@]2(C)[C@H](c3ccoc3)C[C@H]3O[C@]321 [Cedrelone]
- inhibition at 10 µM (Cryptosporidium parvum [1]): 99.5%
- EC50 (Cryptosporidium parvum [1]): 0.267 µM
- TC50 (HCT-8 cells; human): 3.59 µM
- Hs18S ΔCT (HCT-8 host cells (Hs18S); human, 41 h, 10 μM): 1.38
- cytotoxicity at 41 h, 10 µM (in vitro): 61.7%

Structure (SMILES): CC[C@H](C)C(=O)O[C@H]1C[C@@H](C)C=C2C=C[C@H](C)[C@H](CC[C@@H]3C[C@@H](O)CC(=O)O3)[C@H]21 [Lovastatin, reference compound]
- inhibition at 10 µM (Cryptosporidium parvum [1]): 85.8%
- inhibition at 3.3 µM (Cryptosporidium parvum [1]): 58%
- EC50 (Cryptosporidium parvum [1]): 2.41 µM
- TC50 (HCT-8 cells; HCT-8 cells, MTS): >100 µM
- Hs18S ΔCT (HCT-8 host cells (Hs18S); human, 41 h, 10 μM): 0.60
- cytotoxicity at 41 h, 10 µM (in vitro): 34.1%

Structure (SMILES): COc1ccc2c(c1)OC[C@H](Cc1ccc(OC)c(O)c1)C2=O [Deoxysappanone B 7,4′-dimethyl ether]
- inhibition at 10 µM (Cryptosporidium parvum [1]): 91.3%
- inhibition at 3.3 µM (Cryptosporidium parvum [1]): 52%
- EC50 (Cryptosporidium parvum [1]): 0.734 µM
- TC50 (HCT-8 cells; HCT-8 cells, MTS): 64.9 µM
- inhibition at 2 µM (Cryptosporidium parvum [4]; treatment 0-3 hpi (excystation and invasion)): -5.5 ± 7.2%
- inhibition at 2 µM (Cryptosporidium parvum [4]; treatment 3-10 hpi): 9.1 ± 10.4%
- inhibition at 2 µM (Cryptosporidium parvum [4]; treatment 3-22 hpi, assayed at end of treatment): 18%
- inhibition at 2 µM (Cryptosporidium parvum [4]; treatment 3-44 hpi (full course)): 67.2%
- inhibition at 2 µM (Cryptosporidium parvum [4]; treatment 22-44 hpi): 22.9 ± 6.8%
- inhibition at 2 µM (Cryptosporidium parvum [5]; full course 3-44 hpi, read-out: 3-44 hpi Inhibition): 73.8%
- inhibition at 2 µM (Cryptosporidium parvum [5]; treated 3-22 hpi, compound removed, read-out: 3-22 hpi Inhibition): 61.9%
- Hs18S ΔCT (HCT-8 host cells (Hs18S); human, 41 h, 10 μM): 0.62
- cytotoxicity at 41 h, 10 µM (in vitro): 35.1%

Structure (SMILES): COC(=O)C[C@H]1C(C)(C)[C@@H](O)[C@@H]2CC3=C4C=C(OC)O[C@@H](c5ccoc5)[C@]4(C)CCC3[C@@]1(C)C2=O (stereo partly drawn) [3-Deoxo-3beta-hydroxy-mexicanolide 16-enol ether]
- inhibition at 10 µM (Cryptosporidium parvum [1]): 90%
- inhibition at 3.3 µM (Cryptosporidium parvum [1]): 71%
- EC50 (Cryptosporidium parvum [1]): 3.94 µM
- TC50 (HCT-8 cells; HCT-8 cells, MTS): >100 µM
- Hs18S ΔCT (HCT-8 host cells (Hs18S); human, 41 h, 10 μM): -0.49
- cytotoxicity at 41 h, 10 µM (in vitro): -40.1%

Structure (SMILES): COc1ccc(C(=O)c2ccc(O)cc2)c(O)c1O [2,3,4′-Trihydroxy-4-methoxybenzophenone]
- inhibition at 10 µM (Cryptosporidium parvum [1]): 83.2%
- inhibition at 3.3 µM (Cryptosporidium parvum [1]): 59%
- EC50 (Cryptosporidium parvum [1]): 3.69 µM
- TC50 (HCT-8 cells; HCT-8 cells, MTS): >100 µM
- Hs18S ΔCT (HCT-8 host cells (Hs18S); human, 41 h, 10 μM): 0.10
- cytotoxicity at 41 h, 10 µM (in vitro): 6.4%

Structure (SMILES): O=c1cc(-c2ccccc2)oc2cc(O)c(O)c(O)c12 [Baicalein]
- inhibition at 10 µM (Cryptosporidium parvum [1]): 81.3%
- inhibition at 3.3 µM (Cryptosporidium parvum [1]): 66%
- EC50 (Cryptosporidium parvum [1]): 0.981 µM
- TC50 (HCT-8 cells; human): >100 µM
- Hs18S ΔCT (HCT-8 host cells (Hs18S); human, 41 h, 10 μM): 0.10
- cytotoxicity at 41 h, 10 µM (in vitro): 6.7%

Structure (SMILES): CC(C)=CCCC1(C)C=Cc2c(O)c3c(c(CC=C(C)C)c2O1)OC12C(=CC4CC1C(C)(C)OC2(C/C=C(/C)C(=O)O)C4O)C3=O (centres unmarked) [Dihydrogambogic acid]
- inhibition at 10 µM (Cryptosporidium parvum [1]): 97.7%
- inhibition at 3.3 µM (Cryptosporidium parvum [1]): 57%
- EC50 (Cryptosporidium parvum [1]): 1.67 µM
- TC50 (HCT-8 cells; human): 6.31 µM
- Hs18S ΔCT (HCT-8 host cells (Hs18S); [6]): -0.60
- cytotoxicity at 10 µM (in vitro): -52%
